Tests used:
[1] = Saturated solubility of ON.1210.Na in different solvent systems; format: physicochemical; settings: for solubility at 24 h: 24 hours of equilibration; for solubility at 48 h: 48 hours of equilibration
[2] = Octanol:water partition coefficient; format: physicochemical
Method: (§1) A stability indicating HPLC assay is used during the preformulation studies. Preformulation studies include determination of microscopic and macroscopic properties, partition coefficient, pKa, pH-solubility, pH-stability, solid-state characterization and solid-state stability. XRD and thermal analyses re used to characterize the solid and solid-state stability. The solid-state stability as well as the pH stability of the drug is carried out at 75° C.

[3] = Solid-state stability of ON.1210.Na at 75° C.; format: physicochemical
Method: as §1
The stability of ON.1210.Na in the solid state is determined by exposing the drug at 75° C. over a prolonged time. The sample is crimped in a 10 mL injection vial and kept at the above temperature. The sample is collected after 15 days and one month and reconstituted with diluting solution and its concentration is determined by HPLC. Appearance of any additional peak in the chromatogram is also noted. A control sample is represented by ON.1210.Na not exposed to 75° C. and reconstituted to a known concentration with diluting solution.

[4] = pH-stability study under accelerated conditions; format: physicochemical
Method: as §1

[5] = pH-solubility study (equilibrium solubility, pKa); format: physicochemical; settings: for solubility thermodynamic: aqueous solution (buffer not named), thermodynamic from solid
Method: as §1

[6] = Half life by route of administration and as suspension; format: in vivo
Method: When, ON.1210.Na, for example, is administered as a suspension described herein the half life of the drug is on the order of 30-40 hours depending on the specific formulation and its viscosity. This dramatic increase in half-life translates to prolonged exposure to drug over a period of 72 hours and beyond. This increase is possible because of an apparent low dissolution rate of drug from the site of administration.

[7] = General physical properties: solubility in water; format: physicochemical
Description: 1210.Na. The example compound is a sodium salt of (E)-4-Carboxystyryl-4-chlorobenzylsulfone.

[8] = Stability of solid drug after autoclaving (HPLC); format: physicochemical; settings: autoclaved in a crimped vial
Method: A solid drug sample (ON1210), after autoclaving in a crimped vial, is also evaluated for any degradation using the developed HPLC method. The sample, after autoclaving, is used to make a standard solution of 400 μg/mL and injected onto HPLC.

In the case of `O=C([O-])c1ccc(/C=C/S(=O)(=O)Cc2ccc(Cl)cc2)cc1.[Na+]` [ON.1210.Na, (E)-4-Carboxystyryl-4-chlorobenzylsulfone, Sodium Salt], the solubility ([1]; 0.25% Tween 80 in phosphate buffer, pH 8.45, aqueous with cosolvent or surfactant or cyclodextrin) is reported as 9.5 mg/mL, the solubility ([1]; 0.25% tween 80 in water, pH 8.87, aqueous with cosolvent or surfactant or cyclodextrin) is reported as 10.5 mg/mL and the solubility ([1]; 0.5% Tween 80 in phosphate buffer, pH 8.41, aqueous with cosolvent or surfactant or cyclodextrin) is reported as 9.8 mg/mL. For the same compound, the solubility ([1]; 0.5% tween 80 in water, pH 8.74, aqueous with cosolvent or surfactant or cyclodextrin) was 10.3 mg/mL, the solubility ([1]; 1% (w/v) Povidone K 90 in water, pH 8.69, aqueous with cosolvent or surfactant or cyclodextrin) was 209 mg/mL and the solubility ([1]; 1% PVP C 15, pH 8.86, aqueous with cosolvent or surfactant or cyclodextrin, thermodynamic from solid) was 26.9 mg/mL. The solubility ([1]; 1% PVP C 30, pH 8.02, aqueous with cosolvent or surfactant or cyclodextrin, thermodynamic from solid) was 25.1 mg/mL, the solubility ([1]; 1% Tween 80 in phosphate buffer, pH 8.45, aqueous with cosolvent or surfactant or cyclodextrin) was 8.9 mg/mL and the solubility ([1]; 1% tween 80 in water, pH 8.82, aqueous with cosolvent or surfactant or cyclodextrin) was 10.1 mg/mL. For the same compound, the solubility ([1]; 2% PVP C 15, pH 8.69, aqueous with cosolvent or surfactant or cyclodextrin, thermodynamic from solid) was 26.9 mg/mL, the solubility ([1]; 2% Tween 80 in phosphate buffer, pH 8.39, aqueous with cosolvent or surfactant or cyclodextrin) was 9.7 mg/mL and the solubility ([1]; 2% tween 80 in water, pH 8.78, aqueous with cosolvent or surfactant or cyclodextrin) was 9 mg/mL. The solubility ([1]; 5% (w/v) Povidone K 90 in Water, pH 8.35, aqueous with cosolvent or surfactant or cyclodextrin) was 152 mg/mL, the solubility ([1]; 10% PEG400:water, pH 8.24, aqueous with cosolvent or surfactant or cyclodextrin, thermodynamic from solid) was 36 mg/mL and the solubility ([1]; 20% HPCD:20% PEG 400:60% water, pH 8.2, aqueous with cosolvent or surfactant or cyclodextrin) was 53.6 mg/mL. The solubility ([1]; 25% PEG400:water, pH 8.01, aqueous with cosolvent or surfactant or cyclodextrin, thermodynamic from solid) was 39 mg/mL, the solubility ([1]; 40% HPCD, pH 7.86, aqueous with cosolvent or surfactant or cyclodextrin) was 109 mg/mL and the solubility ([1]; 50% PEG400:Buffer (0.01M), pH 8.2, aqueous with cosolvent or surfactant or cyclodextrin) was 20.8 mg/mL. For the same compound, the solubility ([1]; 50% PEG400:Buffer (0.07M), pH 8.2, aqueous with cosolvent or surfactant or cyclodextrin) was 23.4 mg/mL, the solubility ([1]; 50% PEG400:water, pH 7.53, aqueous with cosolvent or surfactant or cyclodextrin) was 40 mg/mL and the solubility ([1]; 50:50 PEG400:ethanol, pH 8.46, organic solvent or mixture) was 37 mg/mL. It also gave a solubility ([1]; 100% ethanol, pH 7.94, organic solvent or mixture) of 0.9 mg/mL, a solubility ([1]; DMA:WATER:Ethanol (1:1:1), aqueous with cosolvent or surfactant or cyclodextrin) of 46.4 mg/mL and a solubility ([1]; NN-Dimethyl Acetamide:Water:PEG 400 (1:2:2), pH 7.9, aqueous with cosolvent or surfactant or cyclodextrin) of 66.2 mg/mL. The solubility ([1]; PEG300:ETH (70:30), pH 8.99, organic solvent or mixture) was 48.3 mg/mL, the solubility ([1]; PEG 300:water (50:50), pH 4.5, aqueous with cosolvent or surfactant or cyclodextrin) was 30.6 mg/mL and the solubility ([1]; PEG400:Benzyl alcohol (50:50), pH 8.19, organic solvent or mixture) was 51.6 mg/mL. It also gave a solubility ([1]; PEG400:Ethanol 70:30, organic solvent or mixture) of 55.5 mg/mL, a solubility ([1]; Propylene Glycol, organic solvent or mixture) of 44 mg/mL and a solubility ([1]; Propylene glycol:water (50:50), pH 8.53, aqueous with cosolvent or surfactant or cyclodextrin) of 41.6 mg/mL. For the same compound, the solubility at 24 h ([1]; aqueous with cosolvent or surfactant or cyclodextrin, thermodynamic from solid, 10% cyclodextran) was 46 mg/mL, the solubility at 24 h ([1]; aqueous with cosolvent or surfactant or cyclodextrin, thermodynamic from solid, 20% cyclodextran) was 62 mg/mL and the solubility ([1]; pH 8.21, organic solvent or mixture, PEG300 (IP10 g/kg)) was 52 mg/mL. The solubility at 24 h ([1]; pH 8.32, aqueous with cosolvent or surfactant or cyclodextrin, thermodynamic from solid, 5% cyclodextran) was 39 mg/mL, the solubility ([1]; pH 8.34, organic solvent or mixture, 100% PEG 400 (12 g/kg)) was 26 mg/mL and the solubility at 48 h ([1]; pH 8.35, aqueous with cosolvent or surfactant or cyclodextrin, thermodynamic from solid, 20% cyclodextran) was 58 mg/mL. For the same compound, the solubility at 48 h ([1]; pH 8.41, aqueous with cosolvent or surfactant or cyclodextrin, thermodynamic from solid, 10% cyclodextran) was 41 mg/mL, the solubility at 48 h ([1]; pH 8.52, aqueous with cosolvent or surfactant or cyclodextrin, thermodynamic from solid, 5% cyclodextran) was 32 mg/mL and the solubility ([1]; water, pH 8.4, water) was 11.8 mg/mL. For the same compound, the “octanol:water partition coefficient” value [2] was 1.28-2.87, the “accelerated solid-state stability of bulk drug substance” value [3] was “no evidence of degradation” and the pH-stability profile ([4]; 75° C., Sodium Salt) was “better stability at neutral and biological pH but degradation is rapid under acidic condition”. For the same compound, the “stability in aqueous environment” value ([4]; biological pH) was “quite stable in an aqueous environment at biological pH”, the degradation rate order ([4]; pH-stability study, Sodium Salt) was “pseudo-first-order rate” and the solubility thermodynamic ([5]; aqueous buffer, pH 4.0) was 0.000154 mg/mL. For the same compound, the solubility thermodynamic ([5]; aqueous buffer, pH 5.0) was 0.0379 mg/mL, the solubility thermodynamic ([5]; aqueous buffer, pH 6.0) was 0.715 mg/mL and the solubility thermodynamic ([5]; aqueous buffer, pH 8.0) was 16.8 mg/mL. For the same compound, the solubility thermodynamic ([5]; aqueous buffer, pH 9.0) was 23.3 mg/mL, the solubility thermodynamic ([5]; pH 7.4, aqueous buffer) was 11.1 mg/mL and the pKa ([5]; calculated from pH-solubility studies) was 2.85 ± 0.6. The half-life ([6]; in vivo, administered as a suspension) was 30 to 40 h, the half life ([6]; intramuscular in contrast to intravenous) was “increases significantly” and the half life ([6]; subcutaneous administration, compared with intramuscular) was “increases even further”. For the same compound, the solubility [7] was 8 to 10 mg/mL and the “stability of bulk solid drug” value [8] was “stable under the autoclaving conditions”.

— US20090247624A1, “FORMULATIONS OF RADIOPROTECTIVE ALPHA BETA UNSATURATED ARYL SULFONES” (Onconova Therapeutics Inc., priority 2006, published 2009)
